Where two headings read alike, the source gives them in different places.
Columns and labels:
[1] = target: histamine receptor H1 (Homo sapiens, UniProt P35367); assay: Histamine H1 radioligand binding ([3H]Pyrilamine); settings: read-out: Histamine Binding (1 μM) H1, percent inhibition of specific binding, 1 μM
Description: To evaluate in radioligand binding assays the activity of compounds of the invention, human recombinant histamine H1 receptor expressed in Chinese hamster ovary (CHO) cells (De Backer, M. D. et al., Biochem. Biophys. Res. Comm. 197(3):1601, 1993) in a modified Tris-HCl buffer (50 mM Tris-HCl, pH 7.4, 2 mM MgCl2, 100 mM NaCl, 250 mM Sucrose) was used. Compounds of the invention were incubated with 1.2 nM [^3H]Pyrilamine for 180 min. at 25° C. Non-specific binding was estimated in the presence of 1 μM pyrilamine. Receptor proteins were filtered and washed, the filters were then counted to determine [^3H]Pyrilamine specifically bound. Compounds were screened at 1 μM or lower, using 1% DMSO as vehicle. Biochemical assay results are presented as the percent inhibition of specific binding in Table 8.

[2] = target: human dopamine D2L receptor (Homo sapiens, UniProt P14416); assay: Dopamine D2L radioligand binding ([3H]Spiperone); settings: compound at 1 μM
Chain of human dopamine D2L receptor (P14416 whole entry): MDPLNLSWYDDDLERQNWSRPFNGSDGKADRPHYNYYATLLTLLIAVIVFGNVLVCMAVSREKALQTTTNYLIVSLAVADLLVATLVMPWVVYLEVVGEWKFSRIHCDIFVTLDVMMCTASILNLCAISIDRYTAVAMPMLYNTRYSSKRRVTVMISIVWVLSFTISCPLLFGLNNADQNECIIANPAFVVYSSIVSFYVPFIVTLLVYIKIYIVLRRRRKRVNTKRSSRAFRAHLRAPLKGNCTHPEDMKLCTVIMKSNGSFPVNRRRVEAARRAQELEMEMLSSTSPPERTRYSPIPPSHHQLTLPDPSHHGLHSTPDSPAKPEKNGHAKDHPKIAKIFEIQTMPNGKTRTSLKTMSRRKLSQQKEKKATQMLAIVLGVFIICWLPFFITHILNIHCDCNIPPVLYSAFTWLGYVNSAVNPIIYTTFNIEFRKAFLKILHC
Excerpt: Non-specific binding was estimated in the presence of […] Haloperidol. Receptor proteins were filtered and washed, the filters were then counted to determine [^3H]Spiperone specifically bound. […] Biochemical assay results are presented as the percent inhibition of specific binding in Table 9.

[3] = percent inhibition of specific binding, read-out: Inhibition of ligand binding, Dopamine D2L
[4] = […] [3H]Spiperone, read-out: Inhibition of ligand binding, Dopamine D2L (percent inhibition of specific binding)

Chain of histamine receptor H1 (P35367 whole entry): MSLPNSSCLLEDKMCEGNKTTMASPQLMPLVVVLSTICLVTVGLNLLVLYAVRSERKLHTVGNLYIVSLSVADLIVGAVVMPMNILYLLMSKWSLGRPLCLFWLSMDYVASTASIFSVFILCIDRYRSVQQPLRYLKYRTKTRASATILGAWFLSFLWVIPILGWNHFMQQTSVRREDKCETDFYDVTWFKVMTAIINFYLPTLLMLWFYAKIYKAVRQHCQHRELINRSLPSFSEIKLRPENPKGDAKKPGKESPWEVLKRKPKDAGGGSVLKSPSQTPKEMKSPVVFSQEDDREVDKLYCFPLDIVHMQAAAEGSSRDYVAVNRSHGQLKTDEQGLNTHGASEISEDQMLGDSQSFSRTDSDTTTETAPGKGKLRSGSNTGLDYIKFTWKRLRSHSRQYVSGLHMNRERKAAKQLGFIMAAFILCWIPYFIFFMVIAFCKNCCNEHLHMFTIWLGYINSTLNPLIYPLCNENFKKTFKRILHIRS

Row | Compound | inhibition at 1 µM [1] [%] | inhibition at 1 µM [2, 3] [%] | inhibition at 1 µM [2, 4] [%]
1 | C/C(=C\n1c2c(c3cc(Cl)ccc31)CN(C)CC2)c1cnccn1 [Compound 333, (E)-8-chloro-2-methyl-5-(2-(pyrazin-2-yl)prop-1-enyl)-2,3,4,5-tetrahydro-1H-pyrido[4,3-b]indole] | 29 | 51 | –
2 | C/C(=C\n1c2c(c3ccc(C(C)C)cc31)CN(C)CC2)c1ccncc1 [Compound 334, (E)-7-isopropyl-2-methyl-5-(2-(pyridin-4-yl)prop-1-enyl)-2,3,4,5-tetrahydro-1H-pyrido[4,3-b]indole] | 18 | 90 | –
3 | C/C(=C\n1c2c(c3cc(Cl)ccc31)CN(C)CC2)c1cccs1 [Compound 338, (E)-8-chloro-2-methyl-5-(2-(thiophen-2-yl)prop-1-enyl)-2,3,4,5-tetrahydro-1H-pyrido[4,3-b]indole] | 83 | 97 | –
4 | Cc1ccc2c(c1)c1c(n2CC(C)(O)c2ccncc2)CCN(CC(F)(F)F)C1 (stereo not drawn) [Compound 341, 1-(8-methyl-2-(2,2,2-trifluoroethyl)-3,4-dihydro-1H-pyrido[4,3-b]indol-5(2H)-yl)-2-(pyridin-4-yl)propan-2-ol] | 11 | 2 | –
5 | Cc1ccc2c(c1)c1c(n2CC(C)(O)c2ccncc2)CCN(C2CC2)C1 (stereo not drawn) [Compound 342, 1-(2-cyclopropyl-8-methyl-3,4-dihydro-1H-pyrido[4,3-b]indol-5(2H)-yl)-2-(pyridin-4-yl)propan-2-ol] | 48 | 11 | –
6 | COc1cccc2c3c(n(CC(C)(O)c4ccncc4)c12)CCN(C)C3 (stereo not drawn) [Compound 343, 1-(6-methoxy-2-methyl-3,4-dihydro-1H-pyrido[4,3-b]indol-5(2H)-yl)-2-(pyridin-4-yl)propan-2-ol] | 22 | 9 | –
7 | CC(C)c1ccc2c3c(n(CC(C)(O)c4ccncc4)c2c1)CCN(C)C3 (stereo not drawn) [Compound 344, 1-(7-isopropyl-2-methyl-3,4-dihydro-1H-pyrido[4,3-b]indol-5(2H)-yl)-2-(pyridin-4-yl)propan-2-ol] | 7 | 10 | –
8 | Cc1ccc2c(c1)c1c(n2CC(C)(O)c2ccncc2)CC(C)N(C)C1 (stereo not drawn) [Compound 345, 2-(pyridin-4-yl)-1-(2,3,8-trimethyl-3,4-dihydro-1H-pyrido[4,3-b]indol-5(2H)-yl)propan-2-ol] | 56 | 15 | –
9 | C/C(=C\n1c2c(c3cc(Cl)ccc31)CN(C)CC2)c1cncnc1 [Compound 346, (E)-8-chloro-2-methyl-5-(2-(pyrimidin-5-yl)prop-1-enyl)-2,3,4,5-tetrahydro-1H-pyrido[4,3-b]indole] | 17 | 26 | –
10 | C=C(Cn1c2c(c3cc(Cl)ccc31)CN(C)C(C)C2)c1ccncc1 (stereo not drawn) [Compound 365, 8-chloro-2,3-dimethyl-5-(2-(pyridin-4-yl)allyl)-2,3,4,5-tetrahydro-1H-pyrido[4,3-b]indole] | 92 | – | 49
11 | C/C(=C\n1c2c(c3cc(Cl)ccc31)CN(C)CC2)C1CCCCC1 [Compound 367, (E)-8-chloro-5-(2-cyclohexylprop-1-enyl)-2-methyl-2,3,4,5-tetrahydro-1H-pyrido[4,3-b]indole] | 64 | – | 48
12 | C/C(=C/n1c2c(c3cc(C)ccc31)CN(C)CC2)C1CCCCC1 [Compound 368, (Z)-5-(2-cyclohexylprop-1-enyl)-2,8-dimethyl-2,3,4,5-tetrahydro-1H-pyrido[4,3-b]indole] | 82 | – | 74
13 | C/C(=C/n1c2c(c3cc(Cl)ccc31)CN(C)CC2)C1CCCCC1 [Compound 369, (Z)-8-chloro-5-(2-cyclohexylprop-1-enyl)-2-methyl-2,3,4,5-tetrahydro-1H-pyrido[4,3-b]indole] | 29 | – | 64
14 | C/C(=C\n1c2c(c3cc(Cl)ccc31)CN(C)CC2)c1nccs1 [Compound 370, (E)-2-(1-(8-chloro-2-methyl-3,4-dihydro-1H-pyrido[4,3-b]indol-5(2H)-yl)prop-1-en-2-yl)thiazole] | 72 | – | 63
15 | CN1CCc2c(c3cc(Cl)ccc3n2/C=C(/c2ccncc2)C(C)(C)C)C1 [Compound No. 286, (E)-8-chloro-5-(3,3-dimethyl-2-(pyridin-4-yl)but-1-enyl)-2-methyl-2,3,4,5-tetrahydro-1H-pyrido[4,3-b]indole] | 19 | 23 | –
16 | CC(C)=C(Cn1c2c(c3cc(Cl)ccc31)CN(C)CC2)c1ccncc1 [Compound No. 357, 8-chloro-2-methyl-5-(3-methyl-2-(pyridin-4-yl)but-2-enyl)-2,3,4,5-tetrahydro-1H-pyrido[4,3-b]indole] | 61 | – | 14
17 | CC(C)=C(Cn1c2c(c3cc(C)ccc31)CN(C)CC2)c1ccncc1 [Compound No. 358, 2,8-dimethyl-5-(3-methyl-2-(pyridin-4-yl)but-2-enyl)-2,3,4,5-tetrahydro-1H-pyrido[4,3-b]indole] | 47 | – | 14
18 | C/C=C(\Cn1c2c(c3cc(Cl)ccc31)CN(C)CC2)c1ccncc1 [Compound No. 360, (Z)-8-chloro-2-methyl-5-(2-(pyridin-4-yl)but-2-enyl)-2,3,4,5-tetrahydro-1H-pyrido[4,3-b]indole] | 47 | – | 36
19 | C/C=C(/Cn1c2c(c3cc(C)ccc31)CN(C)CC2)c1ccncc1 [Compound No. 361, (E)-2,8-dimethyl-5-(2-(pyridin-4-yl)but-2-enyl)-2,3,4,5-tetrahydro-1H-pyrido[4,3-b]indole] | 96 | – | 51
20 | C/C=C(/Cn1c2c(c3cc(Cl)ccc31)CN(C)CC2)c1ccncc1 [Compound No. 362, (E)-8-chloro-2-methyl-5-(2-(pyridin-4-yl)but-2-enyl)-2,3,4,5-tetrahydro-1H-pyrido[4,3-b]indole] | 98 | – | 79
21 | C=C(Cn1c2c(c3cccc(F)c31)CN(C)CC2)c1ccncc1 [Compound No. 363, 6-fluoro-2-methyl-5-(2-(pyridin-4-yl)allyl)-2,3,4,5-tetrahydro-1H-pyrido[4,3-b]indole] | 62 | – | 53
22 | C=C(Cn1c2c(c3cc(C)ccc31)CN(C)CC2)c1cnccn1 [Compound No. 364, 2,8-dimethyl-5-(2-(pyrazin-2-yl)allyl)-2,3,4,5-tetrahydro-1H-pyrido[4,3-b]indole] | 95 | – | 27
23 | C/C(=C/n1c2c(c3cc(C)ccc31)CN(C)CC2)c1cccc(C(=O)N(C)C)c1 [Compound No. 458, (Z)-3-(1-(2,8-dimethyl-3,4-dihydro-1H-pyrido[4,3-b]indol-5(2H)-yl)prop-1-en-2-yl)-N,N-dimethylbenzamide] | 56 | – | 15
24 | CSc1ccc(/C(C)=C/n2c3c(c4cc(C)ccc42)CN(C)CC3)cc1 [Compound No. 459, (E)-2,8-dimethyl-5-(2-(4-(methylthio)phenyl)prop-1-enyl)-2,3,4,5-tetrahydro-1H-pyrido[4,3-b]indole] | 53 | – | 71
25 | CN1CCc2c(c3cc(Cl)ccc3n2/C=C(\c2ccccc2)c2ccncc2)C1 [Compound No. 460, (E)-8-chloro-2-methyl-5-(2-phenyl-2-(pyridin-4-yl)vinyl)-2,3,4,5-tetrahydro-1H-pyrido[4,3-b]indole] | 17 | – | 67
26 | CN1CCc2c(c3cc(Cl)ccc3n2/C=C(/c2ccccc2)c2ccncc2)C1 [Compound No. 461, (Z)-8-chloro-2-methyl-5-(2-phenyl-2-(pyridin-4-yl)vinyl)-2,3,4,5-tetrahydro-1H-pyrido[4,3-b]indole] | 31 | – | 78
27 | C/C(=C\n1c2c(c3cc(C)ccc31)CN(C)CC2)c1ccc(S(C)(=O)=O)cc1 [Compound No. 462, (E)-2,8-dimethyl-5-(2-(4-(methylsulfonyl)phenyl)prop-1-enyl)-2,3,4,5-tetrahydro-1H-pyrido[4,3-b]indole] | 32 | – | 76
28 | CC(O)(Cn1c2c(c3cc(Cl)ccc31)CN(CCCC(=O)c1ccc(F)cc1)CC2)c1ccncc1 (stereo not drawn) [Compound No. 464, 4-(8-chloro-5-(2-hydroxy-2-(pyridin-4-yl)propyl)-3,4-dihydro-1H-pyrido[4,3-b]indol-2(5H)-yl)-1-(4-fluorophenyl)butan-1-one] | 66 | – | 93
29 | Cc1ccc2c(c1)c1c(n2CC(O)(c2ccccc2)c2ccccc2)CCN(C)C1 [Compound No. 465, 2-(2,8-dimethyl-3,4-dihydro-1H-pyrido[4,3-b]indol-5(2H)-yl)-1,1-diphenylethanol] | -14 | – | 21
30 | CN1CCc2c(c3cc(Cl)ccc3n2CC(O)(c2ccccc2)c2ccccc2)C1 [Compound No. 466, 2-(8-chloro-2-methyl-3,4-dihydro-1H-pyrido[4,3-b]indol-5(2H)-yl)-1,1-diphenylethanol] | 10 | – | 54

— patent US8906925B2, “Pyrido[4,3-B]indoles containing rigid moieties” (Medivation Technologies, Inc., priority 2008, dated 2014)
